According to PMC10397409, “The action of physiological and synthetic steroids on the calcium channel CatSper in human sperm” (Frontiers in Cell and Developmental Biology, 2023):
Read-outs that look alike come from different tables or passages of the source.

Experiments:
Assay type in all cases: cell-based
CatSper [1] = molecular target: T1, CatSper (Homo sapiens, UniProt Q7RTX7+Q86XQ3+Q8NEC5+Q96P56); assay: Inhibition of PGE1-induced Ca2+ influx in human sperm (screen 2 inhibitors)
T1 construct: Motile spermatozoa were selected by a ‘swim-up’ procedure; endogenous in cells; host or cells: motile human spermatozoa (swim-up) from healthy donors
Protocol: (§1) Briefly, motile spermatozoa were selected by swim-up and labeled with the fluorescent calcium indicator Fluo-4 a.m. to image changes in [Ca^2+]i. After centrifugation to remove excess dye, Fluo-4 AM loaded cells were distributed in a 384-wells plate to obtain ∼125,000 cells/well. After measuring basal fluorescence, a first injection of compounds was performed in order to evaluate their effect on [Ca^2+]i alone. This first screen is therefore considered as a screen to search for ‘activators’. Fluorescence was recorded for 12 min during which sperm cells were continuously exposed to compounds. P4 or PGE1 were then added in the same wells to evaluate whether the tested compounds can reduce the ligand-induced activation of CatSper. This second screen was therefore considered to be a search for CatSper ‘inhibitors’.
(§2) Human semen samples were collected from healthy donors by masturbation after a recommended sexual abstinence period of minimum 2 days. Semen samples were allowed to liquefy at 37°C for 15–30 min. Motile spermatozoa were selected by a ‘swim-up’ procedure as previously described ([Strünker et al., 2011]). Briefly, 1 mL of semen was deposited in a 45°-inclined 50 mL Falcon tube with 4 mL of Human Tubular Fluid (HTF) medium containing: 93.8 mM NaCl, 4.7 mM KCl, 0.2 mM MgSO4, 0.37 mM KH2PO4, 2.04 mM CaCl2, 20.98 mM HEPES, 2.78 mM glucose, 21.4 mM Na-lactate, 4 mM NaHCO3, 0.33 mM Na-pyruvate, and the pH was adjusted to 7.35. Motile sperm were allowed to swim at 37°C for 1 hour. The supernatant was collected in 15 mL Falcon tubes and washed twice by centrifugation at 700 x g for 20 min. Sperm were supplemented with 3 mg/mL HSA. Written informed consent was obtained from all donors prior to donation and approved by the Cantonal Ethics Committee of the State of Geneva (CCER #14-147).
(§3) Cells were loaded with the fluorescent Ca^2+ indicator Fluo-4 AM at a final concentration of 2.5 µM for 30 min at 37°C. Excess dye was washed via centrifugation at 700 x g for 20 min and sperm were resuspended in HTF medium to obtain a final concentration of 6.25 x 10^6 cells/mL. 20 μL of cells (corresponding to ∼125,000 cells) loaded with Fluo-4 a.m. were dispensed in a 384-wells plate (Corning, NY, United States) to allow fluorescence measurement. The dye was excited at 480 nm, and emission was recorded at 530 nm. The change in [Ca^2+]i was assessed simultaneously in all wells using a Functional Drug Screening System (FDSS/μCELL) (Hamamatsu Phototonics K.K., Yokohama, Japan) at 37°C. Basal fluorescence was first measured for 30 s. […] P4 and PGE1 were tested at a near-saturating concentration in the HTS in order to evaluate a potential additive or synergistic effect induced by the compounds. Non-specific CatSper inhibitor MDL 12330A was used as a negative control at final concentration of 20 µM while DMSO was used as a vehicle control. For alkalization-induced Ca^2+ measurement, NH4Cl was used as a positive control at a final concentration of 10 mM. Fluorescence was recorded for a total of 16.5 min: 30 s before injection, 12 min after the first injection of the tested compounds, and 4 min after the second injection of either P4 or PGE1. The Prestwick library was tested in technical duplicate. Ca^2+ response curves were normalized using the following formula F−F0/F0×100 , where F 0 is the average of the basal fluorescence prior to the addition of the compound of interest and F corresponds to the fluorescence value at each time point. The ∆F/F0 of the vehicle control (DMSO) was subtracted from all the other values to adjust for dilution and pipetting artifacts. The values of all compounds were normalized to their respective controls.

CatSper [2] = molecular target: T1, CatSper; assay: Inhibition of P4-induced Ca2+ influx in human sperm (screen 2 inhibitors)
Protocol: as §1, §2, §3

CatSper [3] = molecular target: T1, CatSper; assay: Steroid-induced increase in [Ca2+]i in human sperm (Fluo-4 HTS assay, screen 1 activators); details: for Emax: read-out: Max amplitude (%) (± SD)
Protocol: as §1
Human semen samples were collected from healthy donors by masturbation after a recommended sexual abstinence period of minimum 2 days. Semen samples were allowed to liquefy at 37°C for 15–30 min. […] Motile sperm were allowed to swim at 37°C for 1 hour. The supernatant was collected in 15 mL Falcon tubes and washed twice by centrifugation at 700 x g for 20 min. Sperm were supplemented with 3 mg/mL HSA.
as §3, with “20” for “Cells were loaded with the fluorescent Ca^2+ indicator Fluo-4 AM at a final concentration of 2.5 µM for 30 min at 37°C. Excess dye was washed via centrifugation at 700 x g for 20 min and sperm were resuspended in HTF medium to obtain a final concentration of 6.25 x 10^6 cells/mL. 20”, “Non-specific CatSper inhibitor MDL 12330A was used as a negative control at final concentration of 20 µM while DMSO was used as a vehicle control.” left out, “Fluorescence was recorded for a total of 16.5 min: 30 s before injection, 12 min after the first injection of the tested compounds, and 4 min after the second injection of either P4 or PGE1.” left out
Data are shown as mean ± standard deviation (SD) with “n” referring to the number of independent experiments performed using sperm samples from ≥3 different donors. Statistical analysis and fitting of dose-response relations were performed using GraphPad Prism 8.1.1 (Prism, La Jolla, United States). To generate sigmoidal curves, the concentrations were converted to their respective log values, and the data were normalized using the following formula: 100⋅x/Fmax , where Fmax is the maximum value of the positive control. A four-parameter Hill equation with a variable Hill coefficient was fitted to generate the EC02, EC50, and IC50. Statistical significance between control and treated conditions was evaluated using a one-way analysis of variance (ANOVA), followed by Dunnett´s test. A p-value <0.05 was considered significant.

[4] = Mean IC50 (P4) µM (±SD), P4-induced response, pooled from 3 independent experiments
[5] = EC50 (±SD), increase in [Ca2+]i, dose-response 90 µM to 0.3 nM
[6] = Mean EC50 µM (±SD), pooled from 3 independent experiments
[7] = maximal amplitude of steroid-induced [Ca2+]i increase, relative to P4, 3 independent experiments
[8] = P4-induced response, pooled from 3 independent experiments, read-out: Mean IC50 (P4) µM (±SD)
[9] = pooled from 3 independent experiments, read-out: Mean EC50 µM (±SD)

| Compound | Max P4 inhibition (%) (± SD) (CatSper [2]; 3 independent experiments) | IC50 (CatSper [2]; [4]) [µM] | Emax (CatSper [3]) [%] | Emax (CatSper [3]; [7]) [%] | IC50 (CatSper [2]; [8]) [µM] | EC50 (CatSper [3]; [9]) [µM] | also measured |
| --- | --- | --- | --- | --- | --- | --- | --- |
| CC(=O)O[C@H]1CC[C@@]2(C)C(=CC[C@@H]3[C@@H]2CC[C@]2(C)C(=O)CC[C@@H]32)C1 [Dehydroisoandosterone 3-acetate (DHEA), Dehydroisoandosterone 3-acetate] | 82 (±6) % | 1.69 | 77 | – | – | – | IC50 (CatSper [1]): 3.7 µM; EC02 compared with reported maximum concentration in blood serum (CatSper [3]): EC02 below the reported maximum concentration found in blood serum; EC50 (CatSper [3]; [5]): 0.593 µM; EC50 (CatSper [3]; [6]): 0.584 µM |
| CC(=O)[C@H]1CC[C@H]2[C@@H]3C=CC4=CC(=O)CC[C@@]4(C)[C@@H]3CC[C@]12C [Dydrogesterone] | 94 (±4) % | 0.24 | – | 84 | – | – | IC50 (CatSper [1]): 44.8 µM; IC50 (CatSper [2]; IC50 (±SD), inhibition of P4-induced Ca2+ response, dose-response 90 µM to 0.3 nM): 0.245 µM; EC02 compared with reported maximum concentration in blood serum (CatSper [3]): EC02 below the reported maximum concentration found in blood serum; effective concentrations as low as (dose-dependent increase in [Ca2+]i) (CatSper [3]): 10 nM; EC50 (CatSper [3]; [5]): 0.13 µM; EC50 (CatSper [3]; [6]): 0.104 µM |
| C[C@]12CC[C@@H](O)C[C@@H]1CC[C@@H]1[C@@H]2CC[C@]2(C)C(=O)CC[C@@H]12 [androsterone] | 61 (±6) % | 2.11 | 70 | – | – | – | IC50 (CatSper [1]): 5.38 µM; EC50 (CatSper [3]; [6]): 1.02 µM |
| CCCC1O[C@@H]2C[C@H]3[C@@H]4CCC5=CC(=O)C=C[C@]5(C)[C@H]4[C@@H](O)C[C@]3(C)[C@]2(C(=O)CO)O1 (stereo partly drawn) [budesonide] | 3 (±8) % | – | – | 7 | – | – | IC50 (CatSper [1]; PGE1-induced response, pooled from 3 independent experiments, read-out: Mean IC50 (PGE1) µM (±SD)): > 100 µM |
| C#C[C@]1(O)CC[C@H]2[C@@H]3CCC4=CC(=O)CC[C@]4(C)[C@H]3CC[C@@]21C [ethisterone] | 10 (±9) % | – | 8 | – | 5.13 | – | – |
| C#C[C@]1(O)CC[C@H]2[C@@H]3CCc4cc(OC)ccc4[C@H]3CC[C@@]21C [ethynylestradiol 3-methyl ether] | 4 (±3) % | – | – | 9 | – | – | – |
| C=C1C[C@@H]2[C@H](CC[C@]3(C)C(=O)CC[C@@H]23)[C@@]2(C)C=CC(=O)C=C12 [exemestane] | – | – | 63 | – | 0.309 | 0.557 | Max P4 inhibition (%) (± SD) (CatSper [2]): 56 (±2) % |
| CC(=O)[C@@]1(O)CC[C@H]2[C@@H]3C[C@H](C)C4=CC(=O)C=C[C@]4(C)[C@@]3(F)[C@@H](O)C[C@@]21C [fluorometholone] | 29 (±12) % | – | – | 42 | 6.51 | 0.702 | – |
| C[C@]12CCC(=O)C(O)=C1CC[C@@H]1[C@@H]2CC[C@]2(C)C(=O)CC[C@@H]12 [formestane] | 70 (±8) % | 1.22 | 71 | – | – | – | EC50 (CatSper [3]; [6]): 0.353 µM |
| C[C@]12CC[C@@H]3c4ccc(O)cc4C[C@@H](CCCCCCCCC[S+]([O-])CCCC(F)(F)C(F)(F)F)[C@H]3[C@@H]1CC[C@@H]2O (stereo partly drawn) [fulvestrant] | 22 (±6) % | – | – | 28 | 6.95 | 2.24 | – |
| C#C[C@]1(O)CC[C@H]2[C@@H]3CCC4=CC(=O)CCC4=C3C=C[C@@]21CC [gestrinone] | 11 (±21) % | 33.6 | 2 | – | – | – | – |
| C[C@H](CCC(=O)O)[C@H]1CC[C@H]2[C@@H]3CC[C@@H]4C[C@H](O)CC[C@]4(C)[C@H]3CC[C@]12C [lithocholic acid] | – | – | 59 | – | – | – | Max P4 inhibition (%) (± SD) (CatSper [2]): 32 (±10) % |
| CC(=O)O[C@]1(C(C)=O)CC[C@H]2[C@@H]3C=C(C)C4=CC(=O)CC[C@]4(C)[C@H]3CC[C@@]21C [megestrol acetate] | -4 (±11) % | – | – | 3 | – | – | – |
| CC#C[C@]1(O)CC[C@H]2[C@@H]3CCC4=CC(=O)CCC4=C3[C@@H](c3ccc(N(C)C)cc3)C[C@@]21C [mifepristone] | – | – | 9 | – | 11 | 13.5 | Max P4 inhibition (%) (± SD) (CatSper [2]): 25 (±25) % |
| C#C[C@]1(O)CC[C@H]2[C@@H]3CCC4=CC(=O)CC[C@@H]4[C@H]3CC[C@@]21C [norethindrone] | – | – | 28 | – | 4.35 | 6.05 | Max P4 inhibition (%) (± SD) (CatSper [2]): 22 (±5) % |
| norgestrel-(-)-d | 3 (±5) % | – | – | – | 75.6 | – | Max amplitude (%) (± SD) (CatSper [3]; [7]): 5 (±3) % |
